Results: ChEMBL document CHEMBL4765292, “Flexible diaminodihydrotriazine inhibitors of Plasmodium falciparum dihydrofolate reductase: Binding strengths, modes of binding and their antimalarial activities” (Eur J Med Chem, 2020)

Tests used:
[1] = Inhibition of Plasmodium falciparum DHFR N51I/C59R/S108N/I164L mutant expressed in Escherichia coli BL21 using DHF as substrate by spectrophotometric analysis
Plasmodium falciparum [2] = experiment: Antimalarial activity against Plasmodium falciparum CsI-2 harboring DHFR C59R/S108N/I164L mutant infected in human erythrocytes assessed as reduction in [3H]-hypoxanthine incorporation pretreated for 20 hrs followed by [3H]-hypoxanthine addition measured after 20 hrs by radioactivity method; type: functional, organism-based; conditions: CsI-2, Erythrocyte
Plasmodium falciparum [3] = experiment: Antimalarial activity against Plasmodium falciparum W2 harboring DHFR N51I/C59R/S108N mutant infected in human erythrocytes assessed as reduction in [3H]-hypoxanthine incorporation pretreated for 20 hrs followed by [3H]-hypoxanthine addition measured after 20 hrs by radioactivity method; type: functional, organism-based; conditions: W2, Erythrocyte
Plasmodium falciparum [4] = experiment: Antimalarial activity against Plasmodium falciparum V1/S harboring DHFR N51I/C59R/S108N/I164L mutant infected in human erythrocytes assessed as reduction in [3H]-hypoxanthine incorporation pretreated for 20 hrs followed by [3H]-hypoxanthine addition measured after 20 hrs by radioactivity method; type: functional, organism-based; conditions: Erythrocyte
[5] = Inhibition of Plasmodium falciparum DHFR C59R/S108N/I164L mutant expressed in Escherichia coli BL21 using DHF as substrate by spectrophotometric analysis
[6] = Inhibition of Plasmodium falciparum DHFR A16V/S108T mutant expressed in Escherichia coli BL21 using DHF as substrate by spectrophotometric analysis
[7] = Inhibition of Plasmodium falciparum DHFR […] mutant expressed in Escherichia coli BL21 using DHF as substrate by spectrophotometric analysis
[8] = Inhibition of Plasmodium falciparum DHFR expressed in Escherichia coli BL21 using DHF as substrate by spectrophotometric analysis
Plasmodium falciparum [9] = experiment: Antimalarial activity against Plasmodium falciparum K1CB1 harboring DHFR […] mutant infected in human erythrocytes assessed as reduction in [3H]-hypoxanthine incorporation pretreated for 20 hrs followed by [3H]-hypoxanthine addition measured after 20 hrs by radioactivity method; type: functional, organism-based; conditions: K1CB1, Erythrocyte
Plasmodium falciparum [10] = experiment: Antimalarial activity against Plasmodium falciparum TM4/8.2 infected in human erythrocytes assessed as reduction in [3H]-hypoxanthine incorporation pretreated for 20 hrs followed by [3H]-hypoxanthine addition measured after 20 hrs by radioactivity method; type: functional, organism-based
[11] = Inhibition of Plasmodium falciparum DHFR N51I/C59R/S108N mutant expressed in Escherichia coli BL21 using DHF as substrate by spectrophotometric analysis
Plasmodium falciparum [12] = experiment: Antimalarial activity against Plasmodium falciparum T9/94 RC17 harboring DHFR A16V/S108T mutant infected in human erythrocytes assessed as reduction in [3H]-hypoxanthine incorporation pretreated for 20 hrs followed by [3H]-hypoxanthine addition measured after 20 hrs by radioactivity method; type: functional, organism-based; conditions: T9/94 RC17, Erythrocyte

Compound | Ki [1] [nM] | IC50 (Plasmodium falciparum [2]) [nM] | IC50 (Plasmodium falciparum [3]) [nM] | IC50 (Plasmodium falciparum [4]) [nM] | Ki [5] [nM] | Ki [6] [nM] | Ki [7] [nM] | Ki [8] [nM] | IC50 (Plasmodium falciparum [9]) [nM] | IC50 (Plasmodium falciparum [10]) [nM] | Ki [11] [nM] | IC50 (Plasmodium falciparum [12]) [nM]
CC1(C)N=C(N)N=C(N)N1OCCCCOCc1ccccc1 | 18.2 | 4800 | 3200 | 20800 | 12.2 | 10.5 | 2.5 | 1 | 2400 | 400 | 2.9 | –
CC1(C)N=C(N)N=C(N)N1OCCCNS(=O)(=O)c1ccccc1 | 184 | 73400 | 15200 | 61900 | 51 | 61 | 4.3 | 0.8 | 5400 | 51 | 10 | 2200
CC1(C)N=C(N)N=C(N)N1OCCCSC1CCCCC1 | 1.4 | 260 | 190 | 3500 | 1.5 | 3 | 1.1 | 0.6 | 260 | 3.3 | 0.8 | 6.9
Cc1ccc(S(=O)(=O)NCCCON2C(N)=NC(N)=NC2(C)C)cc1 | 143 | 31200 | 15100 | 23500 | 73 | 186 | 4 | 1 | 9600 | 440 | 7.5 | 3900
CC1(C)N=C(N)N=C(N)N1OCCCOCc1ccccc1 | 4.1 | 400 | 51 | 1210 | 4.2 | 5.3 | 1.3 | 0.6 | 48 | 14 | 1.2 | –
CC1(C)N=C(N)N=C(N)N1OCCCN(Cc1ccccc1)c1ccc(Cl)cc1 | 2 | 3100 | 510 | 3600 | 2.3 | 6.1 | 0.8 | 0.6 | 400 | 31 | 1.1 | 49
CC1(C)N=C(N)N=C(N)N1OCC(=O)NCc1ccc(Cl)cc1 | 16.3 | 3600 | 2500 | 11000 | 13 | 72.2 | 3.6 | 1.7 | 530 | 2400 | 4.3 | 430
CC1(C)N=C(N)N=C(N)N1OCCNS(=O)(=O)c1ccc(Cl)cc1 | 127 | 25300 | 12700 | > 50000 | 114 | 133 | 4.7 | 1.3 | 5900 | 1200 | 10.2 | 3800
Cc1ccc(S(=O)(=O)NCCON2C(N)=NC(N)=NC2(C)C)cc1 | 229 | 63300 | 21500 | 62200 | 139 | 308 | 6.4 | 1.8 | 9700 | 2000 | 10.2 | 18700
NC1=NC(c2ccccc2)N(OCCc2ccccc2)C(N)=N1 (centres undefined) | 14 | 20500 | 16800 | 24700 | 13 | 8.3 | 3.3 | 1.4 | 16200 | 80 | 4.1 | 3.1
CC1(C)N=C(N)N=C(N)N1OCCNS(=O)(=O)c1ccc([N+](=O)[O-])cc1 | 235 | 3500 | 3600 | 3500 | 229 | 222 | 9.85 | 3.2 | 3100 | 2200 | 17.9 | 3500
CC1(C)N=C(N)N=C(N)N1OCCNS(=O)(=O)c1ccccc1 | 234 | 76500 | 26000 | 77400 | 169 | 215 | 4.8 | 2.7 | 10000 | 4400 | 5.8 | 15000
CC1(C)N=C(N)N=C(N)N1OCCCNC(=O)c1ccccc1 | 13.8 | 2400 | 230 | 5400 | 6.9 | 14.7 | 2.6 | 1.4 | 230 | 29 | 2.6 | 40
CC1(C)N=C(N)N=C(N)N1OCC(=O)Nc1ccccc1 | 17.8 | 17100 | 13900 | 18100 | 16.4 | 131 | 5.2 | 3.7 | 7200 | 1900 | 6.7 | 5200
CC1(C)N=C(N)N=C(N)N1OCCCNc1ccccc1 | 4.8 | 3200 | 300 | 2300 | 1.8 | 5.7 | 0.8 | 0.6 | 240 | 1850 | 1.1 | –
CC1(C)N=C(N)N=C(N)N1OCCCN(Cc1ccccc1)c1ccc(Cl)c(Cl)c1 | 1.7 | 5000 | 2100 | 5300 | 2.7 | 5.3 | 1.6 | 1 | 2300 | 150 | 1.2 | 290
CC1(C)N=C(N)N=C(N)N1OCCOc1cc(Cl)c(Cl)cc1Cl | 16 | 3300 | 3010 | 11500 | 11 | 6.1 | 1.2 | 1 | 490 | 750 | 2.2 | –
CC1(C)N=C(N)N=C(N)N1OCc1ccccc1 | 45 | 47600 | 4500 | > 100000 | 30 | 46 | 2.8 | 0.4 | 1800 | 2670 | 5.9 | –
NC1=NC(c2ccccc2)N(CCCOc2cc(Cl)c(Cl)cc2Cl)C(N)=N1 (centres undefined) | 5.7 | 3100 | 2300 | 2600 | 5.6 | 7.3 | 2.1 | 1.2 | 2900 | 750 | 2.6 | 18
NC1=NC(c2ccccc2)N(OCCCc2ccccc2)C(N)=N1 (centres undefined) | 3.6 | 4500 | 130 | 4800 | 3.2 | 7 | 0.9 | 2.2 | 190 | 20 | 0.6 | 0.52
CC1(C)N=C(N)N=C(N)N1OCC(=O)Nc1ccc(Cl)cc1 | 9.7 | 7900 | 3700 | 16700 | 8.8 | 56.8 | 3.8 | 2.3 | 4000 | 3000 | 4 | 5000
CC1(C)N=C(N)N=C(N)N1OCCCN(Cc1ccccc1)Cc1ccccc1 | 5.4 | 500 | 500 | 5400 | 3.1 | 6.3 | 2.9 | 1.5 | 350 | 22 | 3.1 | 25
NC1=NC(c2ccccc2)N(OCCCOc2ccc(Cl)cc2)C(N)=N1 (centres undefined) | 0.5 | 720 | 100 | 2300 | 0.8 | 1.6 | 1.1 | 0.4 | 85 | 12 | 0.8 | 0.58
CCN(CCCON1C(N)=NC(N)=NC1(C)C)c1ccc(Cl)c(Cl)c1 | 3.9 | 46 | 71 | 2900 | 2.2 | 2.8 | 2.1 | 1.4 | 35 | 26 | 2 | –
CC1(C)N=C(N)N=C(N)N1c1ccc(Cl)cc1 [CYCLOGUANIL] | 421 | 37900 | 6080 | > 100000 | 285 | 1310 | 43.2 | 1.5 | 2400 | 37 | 31.4 | 3700
